Measured values: patent US20070049593A1 (priority 2004, published 2007)
pIC50: −log10 of the molar value. Where a name gives a salt, the structure may show the parent alone.

Each molecule was assayed against T1, HCV polymerase (Hepatitis C virus genotype 1b, UniProt P26663) (assay: biochemical). Settings: not given.
T1 construct: a region encoding NS5B (J Virol 1991 March, 65(3), 1105-13, 544 amino acids after deletion of 47 amino acids on the C-terminal); 6xHis (C); made in house; host or cells: Escherichia coli
T1 sequence (P26663 2420-2963): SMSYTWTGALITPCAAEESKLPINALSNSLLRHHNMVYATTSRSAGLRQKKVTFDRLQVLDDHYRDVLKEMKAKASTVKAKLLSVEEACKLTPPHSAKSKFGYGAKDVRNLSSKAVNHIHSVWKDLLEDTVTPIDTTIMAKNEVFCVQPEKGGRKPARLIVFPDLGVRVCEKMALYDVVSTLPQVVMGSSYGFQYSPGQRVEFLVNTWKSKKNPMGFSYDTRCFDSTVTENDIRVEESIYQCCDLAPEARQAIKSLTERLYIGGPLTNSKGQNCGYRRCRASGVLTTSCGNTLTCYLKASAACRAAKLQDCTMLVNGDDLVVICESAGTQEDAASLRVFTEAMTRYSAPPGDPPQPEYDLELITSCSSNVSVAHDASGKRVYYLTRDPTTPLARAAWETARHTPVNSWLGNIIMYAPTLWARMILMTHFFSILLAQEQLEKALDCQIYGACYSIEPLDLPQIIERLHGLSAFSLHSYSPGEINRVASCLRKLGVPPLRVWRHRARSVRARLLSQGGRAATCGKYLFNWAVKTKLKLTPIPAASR
Set-up: species or system HCV BK strain
Method in brief: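 His-tagged NS5B (BK strain, 47-aa C-terminal deletion, E. coli-expressed) at 0.5 μg/ml copied 5 μg/ml run-off RNA bearing the HCV 3′ UTR with 2 μM UTP plus [3H]UTP, 50 μM ATP/GTP, in pH 7.5 Tris with 5 mM MgCl2, 25 °C, 90 min. TCA-precipitated RNA was counted and IC50 calculated.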

| Compound | pIC50 |
| --- | --- |
| COc1ccc2c(c1)OCCn1c-2c(C2CCCCC2)c2ccc(C(=O)NC(C)(C)c3ncc(-c4ccc(CO)cc4)[nH]3)cc21 [Example 2-545, N-{1-[5-(4-hydroxymethylphenyl)-1H-imidazol-2-yl]-1-methylethyl}-12-cyclohexyl-3-methoxy-6,7-dihydro-5-oxa-7a-azadibenzo[a,e]azulene-9-carboxamide] | > 7.00 |
| O=C(O)c1ccc2c(C3CCCCC3)c3n(c2c1)CCN(CCC1CCCNC1)c1ccccc1-3 (centres unmarked) [Example 1-165, 13-cyclohexyl-5-[2-(piperidin-3-yl)ethyl]-6,7-dihydro-5H-benzo[5,6][1,4]diazepino[7,1-a]indole-10-carboxylic acid dihydrochloride] | > 7.00 |
| COC[C@@H]1CCCN1CCN1CCn2c(c(C3CCCCC3)c3ccc(C(=O)O)cc32)-c2ccccc21 [Example 1-207, 13-cyclohexyl-5-[2-((S)-2-methoxymethylpyrrolidin-1-yl)ethyl]-6,7-dihydro-5H-benzo[5,6][1,4]diazepino[7,1-a]indole-10-carboxylic acid dihydrochloride] | > 7.00 |
| O=C(O)c1ccc2c(c1)c1c(n2C2CCCCC2)-c2ccc(Cl)cc2N(CCN2CCCCC2)CC1 [Example 10-1, 3-chloro-12-cyclohexyl-5-[2-(piperidin-1-yl)ethyl]-5,6,7,12-tetrahydrobenzo[2,3]azepino[4,5-b]indole-9-carboxylic acid] | > 7.00 |
| Cc1ccc2c(c1)N(CCN1CCCC(=O)CC1)CCn1c-2c(C2CCCCC2)c2ccc(C(=O)O)cc21 [Example 1-536, 13-cyclohexyl-3-methyl-5-[2-(4-oxoazepan-1-yl)ethyl]-6,7-dihydro-5H-benzo[5,6][1,4]diazepino[7,1-a]indole-10-carboxylic acid dihydrochloride] | > 7.00 |
| CC(C)(NC(=O)c1ccc2c(C3CCCCC3)c3n(c2c1)CCOc1ccccc1-3)C(=O)Nc1ccc(F)cc1 [Example 2-204, N-[1-(4-fluorophenylcarbamoyl)-1-methylethyl]-12-cyclohexyl-6,7-dihydro-5-oxa-7a-azadibenzo[a,e]azulene-9-carboxamide] | > 7.00 |
| Cc1ccc2c(c1)N(CCN1CCC[C@@H](CC(=O)O)C1)CCn1c-2c(C2CCCCC2)c2ccc(C(=O)O)cc21 [Example 1-556, 5-[2-((S)-3-carboxymethylpiperidin-1-yl)ethyl]-13-cyclohexyl-3-methyl-6,7-dihydro-5H-benzo[5,6][1,4]diazepino[7,1-a]indole-10-carboxylic acid dihydrochloride] | > 7.00 |
| CC(=O)N1CCN(C(=O)C(C)(C)NC(=O)c2ccc3c(C4CCCCC4)c4n(c3c2)CCOc2ccccc2-4)CC1 [Example 2-303, N-[2-(4-acetylpiperazin-1-yl)-1,1-dimethyl-2-oxoethyl]-12-cyclohexyl-6,7-dihydro-5-oxa-7a-azadibenzo[a,e]azulene-9-carboxamide] | > 7.00 |
| CCOC(=O)c1ccc2c(c1)nc(C(C)(C)NC(=O)c1ccc3c(C4CCCCC4)c4n(c3c1)CCOc1ccccc1-4)n2C [Example 2-329, ethyl 2-{1-[(12-cyclohexyl-6,7-dihydro-5-oxa-7a-azadibenzo[a,e]azulene-9-carbonyl)amino]-1-methylethyl}-1-methyl-1H-benzimidazole-5-carboxylate] | > 7.00 |
| COc1ccc2c(c1)N(C(C)C)CCn1c-2c(C2CCCCC2)c2ccc(C(=O)O)cc21 [Example 1-475, 13-cyclohexyl-5-isopropyl-3-methoxy-6,7-dihydro-5H-benzo[5,6][1,4]diazepino[7,1-a]indole-10-carboxylic acid monohydrochloride] | > 7.00 |
| COc1ccc2c(c1)OCCn1c-2c(C2CCCCC2)c2ccc(C(=O)NC(C)(C)c3nc4ccc(C(=O)N(C)C)cc4[nH]3)cc21 [Example 2-346, N-[1-(6-dimethylcarbamoyl-1H-benzimidazol-2-yl)-1-methylethyl]-12-cyclohexyl-3-methoxy-6,7-dihydro-5-oxa-7a-azadibenzo[a,e]azulene-9-carboxamide] | > 7.00 |
| COc1ccc2c(c1)OCCn1c-2c(C2CCCCC2)c2ccc(C(=O)N[C@@H](Cc3ccc(OCc4ccccc4)cc3)c3n[nH]c(C)n3)cc21 [Example 2-525, N—[(S)-2-(4-benzyloxyphenyl)-1-(5-methyl-1H-1,2,4-triazol-3-yl)ethyl]-12-cyclohexyl-3-methoxy-6,7-dihydro-5-oxa-7a-azadibenzo[a,e]azulene-9-carboxamide] | > 7.00 |
| COc1ccc2c(c1)OCCn1c-2c(C2CCCCC2)c2ccc(C(=O)NC3(C(=O)Nc4ccc(/C=C(\C)C(=O)O)cc4)CCC3)cc21 [Example 2-528, (E)-3-[4-({1-[(12-cyclohexyl-3-methoxy-6,7-dihydro-5-oxa-7a-azadibenzo[a,e]azulene-9-carbonyl)amino]cyclobutanecarbonyl}amino)phenyl]-2-methylacrylic acid] | > 7.00 |
| CCN1CCCCC1CCN1CCn2c(c(C3CCCCC3)c3ccc(C(=O)O)cc32)-c2ccc(C)cc21 (centres unmarked) [Example 1-288, 13-cyclohexyl-5-[2-(1-ethylpiperidin-2-yl)ethyl]-3-methyl-6,7-dihydro-5H-benzo[5,6][1,4]diazepino[7,1-a]indole-10-carboxylic acid dihydrochloride] | > 7.00 |
| COC(=O)N1CCCN(CCN2CCn3c(c(C4CCCCC4)c4ccc(C(=O)O)cc43)-c3ccccc32)CC1 [Example 1-233, 13-cyclohexyl-5-[2-(4-methoxycarbonyl-1,4-diazepan-1-yl)ethyl]-6,7-dihydro-5H-benzo[5,6][1,4]diazepino[7,1-a]indole-10-carboxylic acid dihydrochloride] | > 7.00 |
| CCN(CC)CCCN1CCn2c(c(C3CCCCC3)c3ccc(C(=O)O)cc32)-c2ccc(Cl)cc21 [Example 1-302, 3-chloro-13-cyclohexyl-5-(3-diethylaminopropyl)-6,7-dihydro-5H-benzo[5,6][1,4]diazepino[7,1-a]indole-10-carboxylic acid dihydrochloride] | > 7.00 |
| COc1ccc2c(c1)OCCn1c-2c(C2CCCCC2)c2ccc(C(=O)N[C@@H](Cc3ccc(O)cc3)c3nc(C)no3)cc21 [Example 2-388, N—[(S)-2-(4-hydroxyphenyl)-1-(3-methyl-1,2,4-oxadiazol-5-yl)ethyl]-12-cyclohexyl-3-methoxy-6,7-dihydro-5-oxa-7a-azadibenzo[a,e]azulene-9-carboxamide] | > 7.00 |
| COC(=O)[C@H](Cc1ccc(OC)cc1)NC(=O)c1ccc2c(C3CCCCC3)c3n(c2c1)CCOc1ccccc1-3 [Example 2-218, methyl (S)-2-[(12-cyclohexyl-6,7-dihydro-5-oxa-7a-azadibenzo[a,e]azulene-9-carbonyl)amino]-3-(4-methoxyphenyl)propionate] | > 7.00 |
| CCN1CCN(C(=O)CN2CCn3c(c(C4CCCCC4)c4ccc(C(=O)O)cc43)-c3ccccc32)CC1 [Example 1-30, 13-cyclohexyl-5-[2-(4-ethylpiperazin-1-yl)-2-oxoethyl]-6,7-dihydro-5H-benzo[5,6][1,4]diazepino[7,1-a]indole-10-carboxylic acid dihydrochloride] | > 7.00 |

Same assay, conditions: 25° C., 90 min; [5,6-3H]UTP incorporation into RNA; read-out: HCV polymerase inhibitory activity IC50

| Compound | pIC50 |
| --- | --- |
| CNC(=O)[C@H](Cc1ccc(O)cc1)NC(=O)c1ccc2c(C3CCCCC3)c3n(c2c1)CCOc1ccccc1-3 [Example 2-245, [(S)-2-(4-hydroxyphenyl)-1-(methylcarbamoyl)ethyl]-12-cyclohexyl-6,7-dihydro-5-oxa-7a-azadibenzo[a,e]azulene-9-carboxamide] | > 7.00 |
